PubChem BioAssay (NCI)
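96-well plates; 48 h exposure; 5 concentrations. Endpoints by linear interpolation between flanking doses. Not reached: highest tested concentration assigned. GI50 is the concentration that inhibits growth by half. TGI: total growth inhibition.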

Experiments:
Assay in all cases: growth of human tumour cells (NCI), 48 h
NCI-H23 lung = tested on: NCI-H23 lung
SNB-19 CNS = tested on: SNB-19 CNS
OVCAR-5 ovarian = tested on: OVCAR-5 ovarian
SF-295 CNS = tested on: SF-295 CNS
UO-31 renal = tested on: UO-31 renal
MDA-N = tested on: MDA-N
UACC-257 melanoma = tested on: UACC-257 melanoma
PC-3 prostate = tested on: PC-3 prostate
SK-MEL-2 melanoma = tested on: SK-MEL-2 melanoma
NCI-H522 lung = tested on: NCI-H522 lung

SMILES | TGI (NCI-H23 lung) | TGI (SNB-19 CNS) | TGI (OVCAR-5 ovarian) | TGI (SF-295 CNS) | TGI (UO-31 renal) | TGI (MDA-N) | TGI (UACC-257 melanoma) | TGI (PC-3 prostate) | TGI (SK-MEL-2 melanoma) | TGI (NCI-H522 lung) | GI50 (NCI-H23 lung) | GI50 (SNB-19 CNS) | GI50 (OVCAR-5 ovarian) | GI50 (SF-295 CNS) | GI50 (UO-31 renal) | GI50 (NCI-H522 lung) | GI50 (UACC-257 melanoma) | GI50 (PC-3 prostate) | GI50 (SK-MEL-2 melanoma)
COc1cc2c(cc1OC)-c1[nH]c3ccc([N+](=O)[O-])cc3c1CC(=O)N2 | > 100 µM | > 100 µM | > 83.2 µM | > 87.8 µM | > 23.8 µM | > 100 µM | 47.1 µM | 99.4 µM | > 52.3 µM |  |  |  |  |  |  |  |  |  | 
CCOP(=O)(OCC)C(C)(CC)/N=C(\N)NC#N (stereo not given) | > 100 µM | > 100 µM | > 100 µM | > 100 µM | > 100 µM | > 100 µM | > 100 µM | > 100 µM | > 100 µM |  |  |  |  |  |  |  |  |  | 
COc1cccc2c1C(=O)c1c(O)c3c(c(O)c1C2=O)CC(O)(C(C)=O)CC3O (stereo not given) | 16.4 µM | 32.8 µM | 24.1 µM | 19.5 µM | 28.8 µM |  | 32.7 µM |  | 16.9 µM | 3.09 µM |  |  |  |  |  |  |  |  | 
COc1cc(/C=C/c2ccc(S(N)(=O)=O)cc2)cc(OC)c1 | 49.8 µM | > 100 µM | > 100 µM | 55.5 µM | 52 µM | 56 µM | 46.8 µM | 56.1 µM | 40.3 µM |  | 22.5 µM |  |  |  |  |  |  |  | 
c1ccc(Sc2nc(Sc3ccccc3)nc(Sc3ccccc3)n2)cc1 | > 100 µM | > 100 µM | > 100 µM | > 100 µM | > 100 µM |  | > 100 µM | > 100 µM | > 100 µM | > 100 µM |  |  |  |  |  |  |  |  | 
COC1=CC(c2ccc[nH]2)=N/C1=C\c1[nH]c(C)c(C)c1CCC(=O)OCc1ccccc1 | 2.55 µM | 14 µM | 7.07 µM | 0.894 µM | 0.459 µM |  | 2.97 µM | 5.87 µM | 2.1 µM | 1.62 µM | 0.382 µM | 0.676 µM | 0.709 µM | 0.224 µM | 0.209 µM | 0.256 µM | 1.27 µM | 0.277 µM | 0.572 µM
Cc1ccc(O)cc1 (tested in a mixture with another compound) | > 100 µM | > 100 µM | > 100 µM | > 100 µM | > 100 µM |  | > 100 µM | > 100 µM | > 100 µM | > 100 µM |  |  |  |  |  |  |  |  | 
COC(=O)CN(CC1O[C@@H]2OC(C)(C)O[C@@H]2C1NC(C)=O)C(=O)OCc1ccccc1 (stereo not given in full) |  | > 100 µM | > 100 µM | > 100 µM | > 100 µM | > 100 µM | > 100 µM | > 100 µM | > 100 µM | > 100 µM |  |  |  |  |  |  |  |  | 
Brc1ccc(C[N+]23CN4CN(CN(C4)C2)C3)cc1 | > 100 µM | > 100 µM |  | > 100 µM | > 100 µM |  | > 100 µM |  |  | 32.1 µM |  |  |  |  |  |  |  |  | 
COC(=O)C1CCCN1C(=O)OC(C)(C)C (stereo not given) | > 100 µM | > 100 µM | > 100 µM | > 100 µM | > 100 µM | > 100 µM | > 100 µM | > 100 µM | > 100 µM |  |  |  |  |  |  |  |  |  | 
CN1CCN(Cn2nc(-c3cc(F)c(Cl)cc3Cl)oc2=S)CC1 | > 100 µM | > 100 µM | > 100 µM | > 100 µM | > 100 µM |  |  | > 100 µM | > 100 µM | > 100 µM | 76.5 µM | 35.2 µM | > 100 µM | 42.4 µM | 74.1 µM | 90.1 µM |  | 43 µM | > 100 µM
CC1(C)OC2[C@@H](CO[C@@]3([C@H]4OC(C)(C)O[C@@H]4CO)OC(C)(C)O[C@@H]23)O1 (stereo not given in full) | > 100 µM | > 100 µM | > 100 µM | > 100 µM | > 100 µM | > 100 µM |  | > 100 µM | > 100 µM | > 100 µM |  |  |  |  |  |  |  |  | 
Cc1cc2c(cc1-c1cc3c(cc1C)C(C(C)C)=C(O)C(=O)/C3=C\Nc1ccccn1)/C(=C/Nc1ccccn1)C(=O)C(O)=C2C(C)C | > 100 µM | > 100 µM | > 100 µM | > 100 µM |  | > 100 µM | > 100 µM | > 100 µM | 86.5 µM | 74.8 µM |  |  |  |  |  |  |  |  | 
CCC1OC2C(CC=C(C)C)=C3OC(C)(O)C(C)(CC)C(=O)C3=C3OC(=O)C=C1C32 (stereo not given) | 70.7 µM | > 100 µM | > 100 µM | > 100 µM | 69.6 µM |  | 96.2 µM | > 100 µM | 36.1 µM |  |  |  |  |  |  |  |  |  | 
COc1cc2nc3n(c(=O)c2cc1OC)CCCCC3 | > 100 µM |  | > 100 µM | > 100 µM | > 100 µM | > 100 µM | > 100 µM | > 100 µM | > 100 µM | > 100 µM |  |  |  |  |  |  |  |  | 
O=C(NCCCc1cn[nH]c(=O)n1)c1cccc2nc3ccccc3nc12 | > 100 µM | > 100 µM | > 100 µM | > 100 µM |  | > 100 µM | > 100 µM | > 100 µM | > 100 µM |  |  |  |  |  |  |  |  |  | 
CCOC(=O)[C@@]12NN=N[C@@H]1[C@H]1CO[C@H](c3ccccc3)N1C2=O | 32.8 µM | 25 µM | 31.8 µM | 27.5 µM |  | 25.7 µM | 19.7 µM | 26 µM | 21.7 µM | 13.1 µM |  |  |  |  |  |  |  |  | 
Cc1ccc(S(=O)(=O)NCCCSCCO)cc1 | > 100 µM | > 100 µM |  | > 100 µM | > 100 µM | > 100 µM | > 100 µM | > 100 µM |  | > 100 µM |  |  |  |  |  |  |  |  | 
O=P(Nc1cccc(Cl)c1)(Oc1ccccc1)N(CCCl)CCCl (stereo not given) | 31.8 µM |  | 28.8 µM | 28.1 µM | > 100 µM |  | 27.2 µM |  | 25.6 µM | > 100 µM |  |  |  |  |  |  |  |  | 
CCOC(=O)c1cc([N+](=O)[O-])cc([N+](=O)[O-])c1Sc1ncnc2nc[nH]c12 |  | 43 µM | 27.6 µM | 38.1 µM | 3.55 µM | 5.28 µM |  | 9.57 µM | 9.43 µM | 4.39 µM |  |  |  |  |  |  |  |  | 
CCSc1[nH]c(NC(=NC(C)C)NC(=O)c2ccccc2)c(C(N)=O)c1C(N)=O | > 10 µM |  |  | > 10 µM |  | > 10 µM | > 10 µM | > 10 µM |  |  |  |  |  |  |  |  |  |  | 
Cn1c(=O)oc2cc(C(=S)N3CCCCC3)ccc21 | > 100 µM | > 100 µM | > 100 µM | > 100 µM |  | > 100 µM | > 100 µM | > 100 µM | > 100 µM |  |  |  |  |  |  |  |  |  | 
